Measured values taken from the supplement of paper PMC10307832.

Legend:
Test in all cases: relative viability (nuclei count vs DMSO), 5 days (fraction); higher = more cells survive
AZD6482 + Decitabine = compound: Cc1cc([C@@H](C)Nc2ccccc2C(=O)O)c2nc(N3CCOCC3)cc(=O)n2c1 [AZD6482] + Nc1ncn([C@H]2C[C@H](O)[C@@H](CO)O2)c(=O)n1 [Decitabine] (partner 2 µM)
Procedure, shortened: (§1)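 Lung cancer cell lines were seeded in 1536-well plates and dosed by pin tool the next day, with either a single drug or a fixed anchor-drug dose combined with five library-drug doses (not always all listed) spaced in √10 steps. Five days later, one step fixed the cells and stained their nuclei (final 0.05% Triton X-100, 1% formaldehyde, 1 ug/ml Hoechst), and nuclei were counted on 4× images. Relative viability is the nuclei count in treated wells divided by the count in vehicle wells, and each value is the median of duplicate plates.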

AZD6482 + Crizotinib = compound: Cc1cc([C@@H](C)Nc2ccccc2C(=O)O)c2nc(N3CCOCC3)cc(=O)n2c1 [AZD6482] + C[C@@H](Oc1cc(-c2cnn(C3CCNCC3)c2)cnc1N)c1c(Cl)ccc(F)c1Cl [Crizotinib] (partner 1 µM)
Procedure, shortened: as §1

[1] = compound: COc1cc2nc(N3CCCN(C)CC3)nc(NC3CCN(Cc4ccccc4)CC3)c2cc1OC + CC(=O)c1c(C)c2cnc(Nc3ccc(N4CCNCC4)cn3)nc2n(C2CCCC2)c1=O [Palbociclib] (partner 0.5 µM)
Procedure, shortened: as §1

[2] = compound: COc1cc2nc(N3CCCN(C)CC3)nc(NC3CCN(Cc4ccccc4)CC3)c2cc1OC + NC(=O)Nc1cc(-c2cccc(F)c2)sc1C(=O)N[C@H]1CCCNC1 [AZD7762] (partner 0.2 µM)
Procedure, shortened: as §1

Cell Line | relative viability (AZD6482 + Decitabine; first compound 0.08 µM) | relative viability (AZD6482 + Decitabine; first compound 0.253 µM) | relative viability (AZD6482 + Decitabine; first compound 0.8 µM) | relative viability (AZD6482 + Decitabine; first compound 2.53 µM) | relative viability (AZD6482 + Decitabine; first compound 8 µM) | relative viability (AZD6482 + Crizotinib; first compound 0.08 µM) | relative viability (AZD6482 + Crizotinib; first compound 0.253 µM) | relative viability (AZD6482 + Crizotinib; first compound 0.8 µM) | relative viability (AZD6482 + Crizotinib; first compound 8 µM) | relative viability ([1]; first compound 0.2 µM) | relative viability ([1]; first compound 0.6325 µM) | relative viability ([1]; first compound 2 µM) | relative viability ([1]; first compound 6.325 µM) | relative viability ([2]; first compound 0.2 µM) | relative viability ([2]; first compound 0.6325 µM) | relative viability ([2]; first compound 2 µM) | relative viability ([2]; first compound 6.325 µM) | relative viability (AZD6482 + Crizotinib; first compound 2.53 µM)
HARA | 0.495 | 0.511 | 0.455 | 0.43 | 0.602 | 0.857 | 1.04 | 0.839 | 0.899 | 0.21 | 0.312 | 0.252 | 0.278 | 0.306 | 0.337 | 0.453 | 0.266 | 
NCI-H2087 | 0.245 | 0.232 | 0.266 | 0.208 | 0.215 | 0.805 | 0.93 | 0.997 | 0.984 | 0.233 | 0.201 | 0.219 | 0.215 | 1.48 | 1.18 | 1.46 | 1.22 | 0.827
NCI-H1437 | 0.572 | 0.523 | 0.607 | 0.572 | 0.407 | 0.921 | 0.949 | 1.02 | 0.872 | 0.29 | 0.319 | 0.32 | 0.279 | 1.15 | 1.17 | 1.17 | 1.17 | 0.788
NCI-H1792 | 0.519 | 0.479 | 0.549 | 0.356 | 0.476 | 0.909 | 0.828 | 0.983 | 0.444 | 0.637 | 0.654 | 0.609 | 0.685 | 0.778 | 0.591 | 0.76 | 0.58 | 0.717
ChaGo-K-1 | 0.502 | 0.494 | 0.489 | 0.481 | 0.534 | 1.11 |  | 0.744 | 1.12 | 0.883 | 0.979 | 0.933 | 0.902 | 0.911 | 0.852 | 0.882 | 0.856 | 1.23
NCI-H650 | 0.318 | 0.292 | 0.378 | 0.33 | 0.317 | 0.635 |  | 0.786 | 0.47 | 0.394 | 0.307 | 0.31 | 0.295 | 0.95 | 0.93 | 1.02 | 0.67 | 0.442
LK-2 | 0.34 | 0.315 | 0.288 | 0.241 | 0.301 | 0.24 |  | 0.263 | 0.239 | 0.658 | 0.884 | 0.841 | 0.598 | 0.463 | 0.487 | 0.506 | 0.249 | 0.244
201T | 0.855 | 0.763 | 0.844 | 0.816 | 0.812 | 0.998 | 0.991 | 1.09 | 1.04 | 0.375 | 0.361 | 0.354 | 0.365 | 0.657 | 0.619 | 0.492 | 0.602 | 0.944
HCC-44 | 0.895 | 0.937 | 0.978 | 1 | 0.859 | 0.671 | 0.884 | 0.965 | 0.523 | 0.956 | 0.951 | 0.995 | 0.956 | 1.04 | 0.995 | 0.994 | 1.01 | 0.901
H3255 | 0.474 | 0.531 | 0.539 | 0.388 | 0.472 | 0.869 | 0.819 | 0.841 | 0.714 | 0.312 | 0.316 | 0.327 | 0.3 | 0.911 | 0.86 | 0.972 | 0.795 | 0.534
NCI-H647 | 0.374 | 0.406 | 0.302 | 0.236 | 0.361 | 0.902 |  | 0.748 | 0.648 | 0.336 | 0.457 | 0.348 | 0.213 | 0.479 | 0.602 | 0.512 | 0.419 | 0.479
NCI-H23 | 0.309 | 0.288 | 0.32 | 0.312 | 0.304 | 0.444 | 0.426 | 0.481 | 0.417 | 0.475 | 0.522 | 0.521 | 0.415 | 0.198 | 0.322 | 0.262 | 0.174 | 0.369
NCI-H1944 | 0.446 | 0.37 | 0.521 | 0.446 | 0.435 | 1.01 | 1.07 | 1.12 | 0.792 | 0.327 | 0.349 | 0.326 | 0.321 | 0.534 | 0.476 | 0.487 | 0.51 | 0.836
NCI-H460 | 0.445 | 0.38 | 0.618 | 0.452 | 0.395 | 0.874 | 0.644 | 0.99 | 0.471 | 0.101 | 0.237 | 0.084 | 0.0622 | 0.746 | 0.604 | 0.562 | 0.636 | 0.6
EKVX | 0.334 | 0.278 | 0.312 | 0.266 | 0.244 | 0.855 | 0.939 | 0.788 | 0.584 | 0.407 | 0.412 | 0.395 | 0.301 | 0.795 | 0.713 | 0.815 | 0.657 | 0.537
NCI-H358 | 0.246 | 0.218 | 0.237 | 0.185 | 0.189 | 0.514 | 0.592 | 0.566 | 0.383 | 0.147 | 0.118 | 0.141 | 0.139 | 0.518 | 0.681 | 0.48 | 0.498 | 0.417
EPLC-272H | 0.313 | 0.325 | 0.321 | 0.216 | 0.341 | 0.796 |  | 0.835 | 0.584 | 0.326 | 0.322 | 0.316 | 0.346 | 0.209 | 0.209 | 0.184 | 0.258 | 0.649
